IC50 data for ten compounds are collected here from patent US20120121591A1 (priority 2009, published 2012).

For one experiment, the system named is IL-2 secretion from T cells in human whole blood. The format is cell-based. The note with it: read-out: WB (IL-2) IC50 (nM, Avg).
Regarding `CC[C@H](C)[C@@H]1NC(=O)[C@@H](NC(=O)[C@H](CO)NC(=O)[C@@H](N)CCCNC(=N)N)CSSC[C@@H](C(=O)O)NC(=O)[C@H]([C@@H](C)O)NC(=O)CNC(=O)[C@@H]2CSSC[C@@H]3NC(=O)[C@H](CCC(N)=O)NC(=O)[C@H](Cc4ccccc4)NC(=O)[C@H](C)NC(=O)[C@H]([C@@H](C)O)NC(=O)[C@H](CSSC[C@H](NC(=O)[C@H](Cc4ccccc4)NC(=O)[C@H](CO)NC(=O)[C@H](CC(C)C)NC(=O)[C@H](CCCNC(=N)N)NC(=O)[C@H](Cc4ccc(O)cc4)NC(=O)[C@H](CCCCN)NC(=O)[C@H](CCSC)NC(=O)[C@H](CO)NC(=O)[C@H](Cc4c[nH]cn4)NC(=O)[C@H](CCCCN)NC3=O)C(=O)N[C@@H](CCCNC(=N)N)C(=O)N[C@@H](CCCCN)C(=O)N[C@@H]([C@@H](C)O)C(=O)N2)NC(=O)[C@H](CCCNC(=N)N)NC(=O)[C@H](CO)NC(=O)[C@H](Cc2cccc3ccccc23)NC(=O)[C@@H]2CCCN2C(=O)[C@H]([C@@H](C)CC)NC(=O)[C@H]([C@@H](C)O)NC(=O)[C@H](CC(=O)O)NC1=O` [[1-Nal9]ShK], the IC50 stood at 0.367 nM. In the case of `CC[C@H](C)[C@@H]1NC(=O)[C@@H](NC(=O)[C@H](CO)NC(=O)[C@@H](N)CCCNC(=N)N)CSSC[C@@H](C(=O)O)NC(=O)[C@H]([C@@H](C)O)NC(=O)[C@H](CCC(=O)O)NC(=O)[C@@H]2CSSC[C@@H]3NC(=O)[C@H](CCC(N)=O)NC(=O)[C@H](Cc4ccccc4)NC(=O)[C@H](C)NC(=O)[C@H]([C@@H](C)O)NC(=O)[C@H](CSSC[C@H](NC(=O)[C@H](Cc4ccccc4)NC(=O)[C@H](CO)NC(=O)[C@H](CC(C)C)NC(=O)[C@H](CCCNC(=N)N)NC(=O)[C@H](Cc4ccc(O)cc4)NC(=O)[C@H](CCCCN)NC(=O)[C@H](CCSC)NC(=O)[C@H](CO)NC(=O)[C@H](Cc4c[nH]cn4)NC(=O)[C@H](CCCCN)NC3=O)C(=O)N[C@@H](CCCNC(=N)N)C(=O)N[C@@H](CCCCN)C(=O)N[C@@H]([C@@H](C)O)C(=O)N2)NC(=O)[C@H](CCCNC(=N)N)NC(=O)[C@H](CO)NC(=O)[C@H](CCCCN)NC(=O)[C@@H]2CCCN2C(=O)[C@H]([C@@H](C)CC)NC(=O)[C@H]([C@@H](C)O)NC(=O)[C@H](CC(=O)O)NC1=O` [[Glu33]ShK], the IC50 was 0.054 nM.

For the next experiment, the system named is IFN-g secretion from T cells in human whole blood. The experiment is classed as cell-based. The note with it: read-out: WB (IFNg) IC5- (nM, Avg).
With `CC[C@H](C)[C@@H]1NC(=O)[C@@H](NC(=O)[C@H](CO)NC(=O)[C@@H](N)CCCNC(=N)N)CSSC[C@@H](C(=O)O)NC(=O)[C@H]([C@@H](C)O)NC(=O)CNC(=O)[C@@H]2CSSC[C@@H]3NC(=O)[C@H](CCC(N)=O)NC(=O)[C@H](Cc4ccccc4)NC(=O)[C@H](C)NC(=O)[C@H]([C@@H](C)O)NC(=O)[C@H](CSSC[C@H](NC(=O)[C@H](Cc4ccccc4)NC(=O)[C@H](CO)NC(=O)[C@H](CC(C)C)NC(=O)[C@H](CCCNC(=N)N)NC(=O)[C@H](Cc4ccc(O)cc4)NC(=O)[C@H](CCCCN)NC(=O)[C@H](CCSC)NC(=O)[C@H](CO)NC(=O)[C@H](CCC(=O)O)NC(=O)[C@H](CCCCN)NC3=O)C(=O)N[C@@H](CCCNC(=N)N)C(=O)N[C@@H](CCCCN)C(=O)N[C@@H]([C@@H](C)O)C(=O)N2)NC(=O)[C@H](CCCNC(=N)N)NC(=O)[C@H](CO)NC(=O)[C@H](CCCCN)NC(=O)[C@@H]2CCCN2C(=O)[C@H]([C@@H](C)CC)NC(=O)[C@H]([C@@H](C)O)NC(=O)[C@H](CC(=O)O)NC1=O` [[Glu19]ShK], the IC50 was 0.215 nM.

`CC[C@H](C)[C@@H]1NC(=O)[C@@H](NC(=O)[C@H](CO)NC(=O)[C@@H](N)CCCNC(=N)N)CSSC[C@@H](C(=O)O)NC(=O)[C@H]([C@@H](C)O)NC(=O)CNC(=O)[C@@H]2CSSC[C@@H]3NC(=O)[C@H](CCC(N)=O)NC(=O)[C@H](Cc4ccccc4)NC(=O)[C@H](C)NC(=O)[C@H]([C@@H](C)O)NC(=O)[C@H](CSSC[C@H](NC(=O)[C@H](Cc4ccccc4)NC(=O)[C@H](CO)NC(=O)[C@H](CC(C)C)NC(=O)[C@H](CCCNC(=N)N)NC(=O)[C@H](Cc4ccc(O)cc4)NC(=O)[C@H](CCC(=O)O)NC(=O)[C@H](CCSC)NC(=O)[C@H](CO)NC(=O)[C@H](Cc4c[nH]cn4)NC(=O)[C@H](CCCCN)NC3=O)C(=O)N[C@@H](CCCNC(=N)N)C(=O)N[C@@H](CCCCN)C(=O)N[C@@H]([C@@H](C)O)C(=O)N2)NC(=O)[C@H](CCCNC(=N)N)NC(=O)[C@H](CO)NC(=O)[C@H](CCCCN)NC(=O)[C@@H]2CCCN2C(=O)[C@H]([C@@H](C)CC)NC(=O)[C@H]([C@@H](C)O)NC(=O)[C@H](CC(=O)O)NC1=O` [[Glu22]ShK]: the IC50 was determined as 100 nM. Regarding `CC[C@H](C)[C@@H]1NC(=O)[C@@H](NC(=O)[C@H](CO)NC(=O)[C@@H](N)CCCNC(=N)N)CSSC[C@@H](C(=O)O)NC(=O)[C@H]([C@@H](C)O)NC(=O)CNC(=O)[C@@H]2CSSC[C@@H]3NC(=O)[C@H](CCC(N)=O)NC(=O)[C@H](Cc4ccccc4)NC(=O)[C@H](C)NC(=O)[C@H]([C@@H](C)O)NC(=O)[C@H](CSSC[C@H](NC(=O)[C@H](Cc4ccccc4)NC(=O)[C@H](CO)NC(=O)[C@H](CC(C)C)NC(=O)[C@H](CCCNC(=N)N)NC(=O)[C@H](CCC(=O)O)NC(=O)[C@H](CCCCN)NC(=O)[C@H](CCSC)NC(=O)[C@H](CO)NC(=O)[C@H](Cc4c[nH]cn4)NC(=O)[C@H](CCCCN)NC3=O)C(=O)N[C@@H](CCCNC(=N)N)C(=O)N[C@@H](CCCCN)C(=O)N[C@@H]([C@@H](C)O)C(=O)N2)NC(=O)[C@H](CCCNC(=N)N)NC(=O)[C@H](CO)NC(=O)[C@H](CCCCN)NC(=O)[C@@H]2CCCN2C(=O)[C@H]([C@@H](C)CC)NC(=O)[C@H]([C@@H](C)O)NC(=O)[C@H](CC(=O)O)NC1=O` [[Glu23]ShK], the IC50 worked out at 100 nM. On the same count and under the same terms, as for `CC[C@H](C)[C@@H]1NC(=O)[C@@H](NC(=O)[C@H](CO)NC(=O)[C@@H](N)CCCNC(=N)N)CSSC[C@@H](C(=O)O)NC(=O)[C@H]([C@@H](C)O)NC(=O)CNC(=O)[C@@H]2CSSC[C@@H]3NC(=O)[C@H](CCC(N)=O)NC(=O)[C@H](Cc4ccccc4)NC(=O)[C@H](C)NC(=O)[C@H]([C@@H](C)O)NC(=O)[C@H](CSSC[C@H](NC(=O)[C@H](Cc4ccccc4)NC(=O)[C@H](CO)NC(=O)[C@H](CC(C)C)NC(=O)[C@H](CCC(=O)O)NC(=O)[C@H](Cc4ccc(O)cc4)NC(=O)[C@H](CCCCN)NC(=O)[C@H](CCSC)NC(=O)[C@H](CO)NC(=O)[C@H](Cc4c[nH]cn4)NC(=O)[C@H](CCCCN)NC3=O)C(=O)N[C@@H](CCCNC(=N)N)C(=O)N[C@@H](CCCCN)C(=O)N[C@@H]([C@@H](C)O)C(=O)N2)NC(=O)[C@H](CCCNC(=N)N)NC(=O)[C@H](CO)NC(=O)[C@H](CCCCN)NC(=O)[C@@H]2CCCN2C(=O)[C@H]([C@@H](C)CC)NC(=O)[C@H]([C@@H](C)O)NC(=O)[C@H](CC(=O)O)NC1=O` [[Glu24]ShK], the figure is 4.07 nM.

The same experiment, now with this note: read-out: WB (IFNg) IC50 (nM, Avg).
On to `CC[C@H](C)[C@@H]1NC(=O)[C@@H](NC(=O)[C@H](CO)NC(=O)[C@@H](N)CCCNC(=N)N)CSSC[C@@H](C(=O)O)NC(=O)[C@H]([C@@H](C)O)NC(=O)[C@H](Cc2cccc3ccccc23)NC(=O)[C@@H]2CSSC[C@@H]3NC(=O)[C@H](CCC(N)=O)NC(=O)[C@H](Cc4ccccc4)NC(=O)[C@H](C)NC(=O)[C@H]([C@@H](C)O)NC(=O)[C@H](CSSC[C@H](NC(=O)[C@H](Cc4ccccc4)NC(=O)[C@H](CO)NC(=O)[C@H](CC(C)C)NC(=O)[C@H](CCCNC(=N)N)NC(=O)[C@H](Cc4ccc(O)cc4)NC(=O)[C@H](CCCCN)NC(=O)[C@H](CCSC)NC(=O)[C@H](CO)NC(=O)[C@H](Cc4c[nH]cn4)NC(=O)[C@H](CCCCN)NC3=O)C(=O)N[C@@H](CCCNC(=N)N)C(=O)N[C@@H](CCCCN)C(=O)N[C@@H]([C@@H](C)O)C(=O)N2)NC(=O)[C@H](CCCNC(=N)N)NC(=O)[C@H](CO)NC(=O)[C@H](CCCCN)NC(=O)[C@@H]2CCCN2C(=O)[C@H]([C@@H](C)CC)NC(=O)[C@H]([C@@H](C)O)NC(=O)[C@H](CC(=O)O)NC1=O` [[1-Nal33]ShK], for which the IC50 amounted to 1.43 nM. Take `CC[C@H](C)[C@@H]1NC(=O)[C@@H](NC(=O)[C@H](CO)NC(=O)[C@@H](N)CCCNC(=N)N)CSSC[C@@H](C(=O)O)NC(=O)[C@H]([C@@H](C)O)NC(=O)CNC(=O)[C@@H]2CSSC[C@@H]3NC(=O)[C@H](CCC(N)=O)NC(=O)[C@H](Cc4ccccc4)NC(=O)[C@H](C)NC(=O)[C@H]([C@@H](C)O)NC(=O)[C@H](CSSC[C@H](NC(=O)[C@H](Cc4ccccc4)NC(=O)[C@H](CO)NC(=O)[C@H](CC(C)C)NC(=O)[C@H](CCCNC(=N)N)NC(=O)[C@H](Cc4ccc(O)cc4)NC(=O)[C@H](CCCCN)NC(=O)[C@H](CCSC)NC(=O)[C@H](CO)NC(=O)[C@H](Cc4c[nH]cn4)NC(=O)[C@H](CCCCN)NC3=O)C(=O)N[C@@H](CCCNC(=N)N)C(=O)N[C@@H](CCCCN)C(=O)N[C@@H]([C@@H](C)O)C(=O)N2)NC(=O)[C@H](CCCNC(=N)N)NC(=O)[C@H](CO)NC(=O)[C@H](CCCCN)NC(=O)[C@H](CCCCN)NC(=O)[C@H]([C@@H](C)CC)NC(=O)[C@H]([C@@H](C)O)NC(=O)[C@H](CC(=O)O)NC1=O` [[Lys8]ShK]: the IC50 was found to be 0.974 nM. `CC[C@H](C)[C@@H]1NC(=O)[C@@H](NC(=O)[C@H](CO)NC(=O)[C@@H](N)CCCNC(=N)N)CSSC[C@@H](C(=O)O)NC(=O)[C@H]([C@@H](C)O)NC(=O)[C@H](CCCCN)NC(=O)[C@@H]2CSSC[C@@H]3NC(=O)[C@H](CCC(N)=O)NC(=O)[C@H](Cc4ccccc4)NC(=O)[C@H](C)NC(=O)[C@H]([C@@H](C)O)NC(=O)[C@H](CSSC[C@H](NC(=O)[C@H](Cc4ccccc4)NC(=O)[C@H](CO)NC(=O)[C@H](CC(C)C)NC(=O)[C@H](CCCNC(=N)N)NC(=O)[C@H](Cc4ccc(O)cc4)NC(=O)[C@H](CCCCN)NC(=O)[C@H](CCSC)NC(=O)[C@H](CO)NC(=O)[C@H](Cc4c[nH]cn4)NC(=O)[C@H](CCCCN)NC3=O)C(=O)N[C@@H](CCCNC(=N)N)C(=O)N[C@@H](CCCCN)C(=O)N[C@@H]([C@@H](C)O)C(=O)N2)NC(=O)[C@H](CCCNC(=N)N)NC(=O)[C@H](CO)NC(=O)[C@H](CCCCN)NC(=O)[C@@H]2CCCN2C(=O)[C@H]([C@@H](C)CC)NC(=O)[C@H]([C@@H](C)O)NC(=O)[C@H](CC(=O)O)NC1=O` [[Lys33]ShK]: the IC50 came out at 0.317 nM. With “[1-Nal14]ShK (RSCIDTIPKSRCTXFQCKHSMKYRLSFCRKTCGTC; non-natural residues)”, the IC50 was determined as 0.11 nM.
